Measured values reported in patent US20110076258A1, “METHODS OF MODULATING T CELL- DEPENDENT IMMUNE RESPONSES” (Converge Biotech Inc., priority 2008, published 2011).
“Also recorded” adds a separate entry of the source.

Columns and labels:
[1] = system: OVA-specific T cell clones; assay: Calcium imaging of CD3 responsiveness after pre-stimulation (anergy); assay type: cell-based, mouse; details: pre-incubated 16 h
Source text: (§1) NFAT nuclear translocation without concomitant MAPK activation, which can be obtained by ionomycin treatment, implements a transcriptional program leading to T cell anergy (Macian et al., Cell 109:719-731 (2002)). […] Then, we hypothesized that activation of T cells in the presence of oATP could induce T cell anergy. […] The effect of oATP was not due to altered turn-over of the TCR/CD3 complex at the cell surface, as determined by FACS analysis (data not shown).

[2] = system: naïve CD4^+ T cells / CD4^+CD25^+ natural Treg cells; assay: Treg differentiation and expansion in vitro (anti-CD3, irradiated splenocytes, IL-2); assay type: cell-based
Method: Treg cell generation was analyzed after 7-10 days of culture by flow cytometry.

mouse T cells = assay: IL-2 secretion by ELISA; assay type: cell-based
Egr2 and Egr3 = assay: Real-time PCR of anergy related genes Egr2 and Egr3; assay type: cell-based, mouse; details: 2 h and 16 h after T cell activation
Source text: as §1

[3] = system: naïve CD4 crt^−/− and crt^+/+ T cells; assay: CD62L re-expression after activation with plate bound CD3 and CD28 antibodies (FACS); assay type: cell-based, mouse; details: crt^−/− and wild-type cells, 38 h
Method: FIG. 3: Mitochondrial Ca^2+ uptake during T cell activation leads to ATP synthesis and release. • a) ATP synthesis at different time points after T cell activation with CD3 antibodies in crt^−/− and crt^+/+ sorted naïve CD4^+ T cells (see Example 2). • b) ATP production upon T cell activation in the absence (control) or presence of the ATP synthetase inhibitor oligomycin. • c) FACS profile of CD62L expression on the surface of sorted naïve CD4 crt^−/− and crt^+/+ T cells at 38 h following activation with plate bound CD3 and CD28 antibodies. The same experiment was performed in the presence of oATP. • d) Naïve CD4^+ T cells were stained with the nucleotide binding compound quinacrine (see Example 2). The homogenous cytosolic staining indicates the absence of secretory vesicles containing ATP. • e) Subcellular fractionation of non-stimulated and activated naïve T cells on a continuous sucrose gradient (see Example 2). ATP was detected only in fractions containing also the cytosolic protein Zap-70 and not in those characterized by the small vesicular marker cellubrevin.
This shedding is thought to be inhibited by the P2X receptor antagonist oATP (Gu et al., Blood 92:946-951 (1998)). In vitro T cell activation of CD4 naïve T cells causes shedding of CD62L, which is progressively re-expressed following TCR triggering.

naïve CD4^+ T cells = assay: IL-2 ELISA in culture supernatants, plate-bound CD3 and CD28 stimulation; assay type: cell-based, mouse; details: versus untreated cells, 48 h
Source text: An inhibitory effect of oATP on peripheral blood T cell proliferation has been described (Baricordi et al., Blood 87:682-690 (1996)). […] We therefore hypothesize that ATP released from activated T cell is part of an autocrine loop, which plays an essential role in productive T cell activation.

cd3ε^−/− mice = assay: Inflammatory bowel disease induced by naïve CD4^+ T cells; assay type: in vivo, mouse
Source text: FIG. 8: Amelioration of inflammatory bowel disease by oATP treatment. • a) Photographs of representative mesenteric lymph nodes, spleens and colons from cd3ε^−/− mice adoptively transferred with CD4^+/CD25^+ and CD4^+ cells (see Example 5). […] Bar=1 cm • b) Histograms representing inflammation scores in animals treated as indicated (see methods section) (mean±SD; n=5, CD4^+/25^+ healthy control group; n=7, CD4^+ untreated group; n=8, CD4^+ oATP-treated group). • c) Hematoxilin/eosin (upper panels) and Alcian/PAS (lower panels) staining of colon sections from the indicated animals (all the microscopic pictures in the box were taken at the same magnification; scale bar=50 μm). […] Partial goblet cell depletion and reduction in size of Alcian-PAS-positive droplets are also noticeable (arrowheads); in mice reconstituted with CD4 cells and treated with PBS, the lamina propria is markedly expanded by inflammatory cell infiltrate with focal findings of crypt abscessation (arrow). Colonic crypts are also severely dysplastic with almost complete loss of goblet cells. • d) Cell recoveries from mesenteric lymph nodes and spleen of the indicated animals.
e) Absolute numbers of IL-2-, TNFα-, IFNγ- and IL-17-producing CD4^+ T cells in mesenteric lymph nodes from the indicated mice (mean±SD; n=5, CD4^+/25^+ healthy group; n=7, CD4^+ untreated group; n=8, CD4^+ oATP-treated group). *, P<0.05, **, P<0.001, ***, P<0.0001 • f) Absolute numbers of CD44^+CD62L^− effector/memory and CD69^+ CD4 cells recovered from mesenteric lymph nodes and spleen of the indicated group of animals (bars represent mean values).
To test oATP in a non-transgenic model of T cell-mediated inflammation, we induced inflammatory bowel disease (IBD) in T lymphopenic cd3ε^−/− mice by injecting naïve CD4^+ T cells. As a healthy control we used cd3ε^−/− mice injected with naïve CD4^+ T cells together with CD4^+CD25^+ cells comprising regulatory T cells (Treg). […] Starting at day 15 after cell transfer, the IBD group was daily injected intravenously either with PBS or oATP.

ERK = ERK phosphorylation time course after CD3 stimulation, TCR signaling blocked with PP2 at 30 min; assay type: cell-based, mouse; details: added in combination with PP2
Method: After 30 min of stimulation, cells were either left untreated (first panel on the left), or treated with the src-like kinase inhibitor PP2 either alone (second panel) or in combination with oATP (third panel) or ARL (fourth panel).
(§2) In order to distinguish between TCR dependent and independent ERK activation, TCR signaling was blocked at 30 min after CD3 activation with the tyrosine kinase inhibitor PP2, which inhibits TCR dependent Ick/fyn src-like kinase activity.

NFAT1 = NFAT1 nuclear localization after T cell stimulation; assay type: cell-based, mouse
Method: as §2
NFAT nuclear translocation without concomitant MAPK activation, which can be obtained by ionomycin treatment, implements a transcriptional program leading to T cell anergy (Macian et al., Cell 109:719-731 (2002)). […] Then, we hypothesized that activation of T cells in the presence of oATP could induce T cell anergy.

mouse model of IBD = assay: IBD model with insufficient number of adoptively transferred Treg cells; assay type: in vivo

`Nc1ncnc2c1ncn2[C@@H](C=O)O[C@@H](C=O)COP(=O)(O)OP(=O)(O)OP(=O)(O)O` [oATP] was tested, and the “responsiveness in calcium imaging of previously stimulated T cells” value [1] was “reduced responsiveness”, the “Foxp3 by quantitative RT-PCR” value ([2]; first 6 days after anti-CD3 stimulation) was “progressive upregulation” and the “percentage of CD4^+CD25^highFoxp3^+ Treg cells” value ([2]; naïve CD4^+ T cells, oATP 100 μM) was “significantly enhanced”. For the same compound, the “expansion of Treg cells, Foxp3 expression level” value ([2]; sorted CD4^+CD25^+ natural Treg cells, oATP 100 μM) was “higher expression levels of Foxp3”, the IL-2 secretion (mouse T cells) was “strongly inhibited” and the “Egr2 and Egr3 transcripts” value (Egr2 and Egr3) was “significant upregulation”. The “CD62L re-expression after activation” value [3] was “enhanced and identical re-expression efficiency”, the “IL-2 in the cell culture supernatant” value (naïve CD4^+ T cells) was “significant reduction” and the “macroscopic intestine phenotype (thickening of the bowel wall, unformed or absent stool)” value (cd3ε^−/− mice; 5 weeks after reconstitution, daily i.v. from day 15) was “significantly ameliorated”. The “number of proinflammatory cytokine (IL-2, IFN-γ and TNF-α)-secreting cells” value (cd3ε^−/− mice; mesenteric lymph nodes) was “significantly reduced”, the “cellularity, CD4^+ effector/memory subset (CD44^+62L^−) and CD69^+ cells in mesenteric lymph nodes and spleen” value (cd3ε^−/− mice; mouse, in vivo) was “undistinguishable from healthy controls” and the “colon histology (hematoxilin/eosin, Alcian/PAS)” value (cd3ε^−/− mice; mouse, in vivo) was “lamina propria is focally expanded by inflammatory cells infiltrate”. For the same compound, the “inflammation score versus animals injected with CD4^+ and Treg cells” value (cd3ε^−/− mice; mouse, in vivo) was “not significantly different”, the “number of IL-17 secreting cells” value (cd3ε^−/− mice; mouse, in vivo) was “analogous to the number in control mice” and the “spleen and mesenteric lymph nodes size” value (cd3ε^−/− mice; mouse, in vivo) was “normal in size”. For the same compound, the “ERK phosphorylation / activity” value (ERK) was “significant inhibition; also recorded: almost completely abolished”, the “nuclear localization of NFAT1” value (NFAT1) was “did not significantly affect” and the “cellular damage due to toxicity, PI staining versus untreated” value (crt^−/− CD4^+ T cells) was “did not reveal any difference”. The “Foxp3 expression in Treg cells” value (mouse model of IBD; day 28, daily 100 μl of 3 mM oATP i.v. from day 14) was “increased”, the bowel inflammation (mouse model of IBD; mouse, in vivo) was “no signs of bowel inflammation” and the “effector/memory T cells in mesenteric lymph nodes” value (mouse model of IBD; mouse, in vivo) was “reduced counts”. The “ratio of Treg/EM cells in mesenteric lymph nodes” value (mouse model of IBD; mouse, in vivo) was “not significantly changed” and the “spleen and mesenteric lymph nodes size” value (mouse model of IBD; mouse, in vivo) was “no increase”.
